US20240360107A1, “AN EIF4A INHIBITOR WITH A NOVEL MECHANISM OF ACTION” (ARIZONA BOARD OF REGENTS ON BEHALF OF THE UNIVERSITY OF …, priority 2021, published 2024)
“Also recorded” adds a separate entry of the source. Like-named read-outs stand apart in the source and are kept apart here.

Legend:
eIF4A [1] = target: T1, eIF4A (Homo sapiens, UniProt P60842); assay: Helicase (duplex unwinding) assay; type: biochemical; parameters: 6xHis with TEV protease site (N, cleaved yes); made in house; host or cells: E. coli BL21-CodonPlus; conditions: Cy3-RNA/DNA duplex, 2.5 μM eIF4A, 2 mM ATP
Procedure: A functional duplex unwinding assay with a duplex nucleic acid substrate was utilized to test if compound 1 and compound 28 could inhibit eIF4A helicase activity. This unwinding assay features a Cy3-labeled RNA strand annealed to a DNA strand with a long overhang that eIF4A can bind (FIG. 9, top right). When ATP is added to protein and substrate, eIF4A unwinds the duplex, leaving an unlabeled DNA strand and a Cy3-labeled single stranded RNA. When visualized on a native gel, the larger intact fluorescent duplex substrate will run higher on the gel than the smaller unwound single-stranded fluorescent RNA. The ratio of these two Cy3 signals can be used to determine the helicase activity of eIF4A in each condition.
Dose responses of compound 1 and compound 28 were conducted using this assay. […] The intensity of each band in each gel lane was quantified by densitometry to obtain IC50 values for compound 1 and compound 28 in this assay. […]
Helicase assay. […] All products were analyzed by electrophoresis on 20% native polyacrylamide (37.5:1 acrylamide:bisacrylamide) gels. Gels were run at 4° C. for 2 hours and Cy3 signal was detected on an Azure 600 Fluorescent Imaging System (Azure Biosystems) at 524 nm:572 nm (Ex:Em). Cy3 signal was quantified by gel band densitometry performed using ImageJ32 (NIH). IC50 values were calculated using GraphPad Prism v6.0.

[2] = tested on: BJAB Burkitt lymphoma cells; assay: CellTiter-Glo Luminescent Cell Viability assay; type: cell-based; conditions: 72 h; for effect on BJAB cell viability: top concentration 10 uM
Procedure: Compounds 1 and compound 28 were evaluated in a CellTiter-Glo (CTG) Luminescence cell viability assay in BJAB Burkitt lymphoma cells that are known to be sensitive to eIF4A inhibition. This assay quantitates the number of living, metabolically active cells by measuring their ATP levels.
Cell viability assay. BJAB lymphoma cells were plated in quadruplicate at 5,000 cells/well in serial dilutions of drug ranging two logs with the top concentration of compounds tested at 10 uM. Viability was measured after 72 h using Cell Titer Glo (Promega G7573) following the manufacturer's protocol. Luminescence was detected on the BioTek HT Synergy plate reader and values were normalized to vehicle-treated (DMSO) wells. Silvestrol was included as a positive control (not shown).

eIF4A [3] = target: T1, eIF4A; assay: kinetic testing using the malachite green assay (ATP and RNA titration); type: biochemical; parameters: 6xHis with TEV protease site (N, cleaved yes); made in house; host or cells: E. coli BL21-CodonPlus; conditions: for Alpha value for ATP / Ki / Alpha value for RNA: mixed-model inhibition fit
Procedure: (§1) ATP titration (left) used 250 μg/mL RNA. Data were fit using unbiased mixed-model inhibition in Prism 6.0. Alpha value for ATP is 0.424, indicating an ATP-uncompetitive inhibitor. Kiapp for ATP is 10.3 μM. RNA titration (right) used 250 μM ATP. […] Kiapp for RNA is 9.59 μM. Data shown are an average of 3 independent experiments.
as §1, with “was done with” for “used”, “0.514,” for “0.424,”, “ATP=4.79” for “ATP is 10.3”, “RNA=4.27” for “RNA is 9.59”
ATPase assay. Recombinant WT or mutant eIF4A was added to a clear bottom 384 well plate (Greiner) in ATPase buffer (20 mM Tris pH 7.4, 80 mM KCl, 2.5 mM MgCl2, 1 mM DTT, 1% glycerol). Compounds were added and the plate was incubated at 37° C. for 20 min. ATP/RNA solution was added to afford a 20 μL per well reaction volume with 750 nM eIF4A, 250 μM ATP, and 0.25 mg/mL Yeast RNA (Sigma) for the initial screen and dose responses, and varying concentrations of ATP and RNA for the kinetic assays. The plate was incubated for 4 h at 37° C. for the initial screen and dose responses, and at seven time points (1 hour-7 hours) for kinetic assays. 0.04% v/v (final concentration) Tween-20 was added to a Malachite Green solution, and the Malachite Green (40 μL per well) was added. The solution was incubated for 5 minutes at room temperature and Absorbance at 660 nm was read on a SpectraMax iD5 plate reader (Molecular Devices).

[4] = ATP titration, 250 μg/mL RNA, read-out: Kiapp for ATP
[5] = RNA titration, 250 μM ATP, read-out: Kiapp for RNA

T1 sequence (P60842 whole entry): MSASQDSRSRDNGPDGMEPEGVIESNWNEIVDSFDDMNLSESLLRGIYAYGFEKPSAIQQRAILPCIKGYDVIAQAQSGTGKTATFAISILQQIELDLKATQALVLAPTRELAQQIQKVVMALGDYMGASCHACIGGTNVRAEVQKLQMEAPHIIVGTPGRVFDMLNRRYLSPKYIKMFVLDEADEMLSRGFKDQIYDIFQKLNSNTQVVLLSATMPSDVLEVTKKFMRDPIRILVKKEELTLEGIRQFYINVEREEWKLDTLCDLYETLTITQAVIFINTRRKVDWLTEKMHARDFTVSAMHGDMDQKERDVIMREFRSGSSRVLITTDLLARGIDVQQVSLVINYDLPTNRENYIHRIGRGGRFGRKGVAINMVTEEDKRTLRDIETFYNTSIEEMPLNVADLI

Compound | inhibition of eIF4A duplex unwinding (eIF4A [1]) | effect on BJAB cell viability [2] | EC50 ([2]; Homo sapiens, CellTiter-Glo, n=4) [µM] | mechanism of inhibition with respect to ATP (eIF4A [3]) | mechanism of inhibition with respect to RNA (eIF4A [3]) | Alpha value for ATP (eIF4A [3]; ATP titration, 250 μg/mL RNA) | Ki (eIF4A [3]; [4]) [µM] | Alpha value for RNA (eIF4A [3]; RNA titration, 250 μM ATP) | Ki (eIF4A [3]; [5]) [µM]
CCCCc1ccc(-c2ccc(-c3cc(C(=O)O)c4cc(Br)ccc4n3)o2)cc1 [Compound 1, 6-bromo-2-(5-(4-butylphenyl)furan-2-yl)quinoline-4-carboxylic acid] | inhibit eIF4A duplex unwinding | decrease BJAB cell viability | 2.13 ± 0.17 | uncompetitive with respect to ATP | RNA-competitive | 0.424 | 10.3 | 4.53×10^13 | 9.59
CCCCc1ccc(-c2ccc(-c3cc(C(=O)O)c4cc([N+](=O)[O-])ccc4n3)o2)cc1 [Compound 28, 2-(5-(4-butylphenyl)furan-2-yl)-6-nitroquinoline-4-carboxylic acid] | about four-fold more potent than compound 1; also recorded: inhibit eIF4A duplex unwinding | three to four times more potent than 1; also recorded: decrease BJAB cell viability | – | ATP-uncompetitive | RNA-competitive | 0.514 | 4.79 | 4.52×10^21 | 4.27
